This passage reports intrinsic solubility results from patent US20150057266A1 (AbbVie Inc., priority 2005, published 2015).

Each structure is given as a SMILES string.

This data set can be described thus: intrinsic solubility (aqueous medium/lower pH). The class given is physicochemical.

For the compound `Cc1cccc(Nc2ccccc2C(=O)O)c1C` [mefanamic acid], the intrinsic solubility was 0.0423 µg/mL.
